From patent US20140163050A1, “Use of 1H-quinazoline-2,4-diones” (priority 2011, published 2014)
≈ marks a conversion by molar mass, not a printed value. Where “and” joins values, the source holds several entries; their conditions need not be identical. Equal values may be shown once. Read-outs that look alike come from different tables or passages of the source.

Legend:
[1] = tested on: patients with PSE; experiment: PK-PD relationship, Emax model for SPR; format: in vivo, human; conditions: for EC50: Homo sapiens, read-out: mean (SD) EC50; for EC50 / mean (SD) Emax on the logit scale: mean across the 13 patients; for EC50 (C-7 concentration at 50% of the maximum reduction in SPR) / Emax (maximum reduction in SPR on the logit scale): estimate for each patient (15, 50 or 100 mg)
Procedure: The mean SPR per eye condition and plasma PK concentrations of C-7 50, 100, and 15 mg dose groups is shown in FIG. 3, FIG. 4 and FIG. 5, respectively.
A PK-PD model was developed sequentially for the SPR data. Firstly a pharmacokinetic model was fitted using nonlinear mixed effects methodology in NONMEM version VI to describe the 13 patients with both PK and PD data. A 3 compartment disposition model with first order absorption and absorption lag time was selected to describe the pharmacokinetic time profile for each patient. The between patient variability was described by exponential random effects on each pharmacokinetic parameter, with all parameters assumed to be independent between individuals. The residual error model combined the additive and proportional error terms. The estimated pharmacokinetic parameters for each patient were used to generate each patient's PK profile as an input to the pharmacodynamic model.
For the Pharmacodynamic response, SPR, an Emax model was fitted on the logit transformed scale:
where Base is the baseline SPR on the logit scale, Emax is the maximum reduction in SPR on the logit scale, EC50 is the concentration at which the 50% of the maximum reduction is obtained and C is C-7 concentration. For each patient, the PD parameters for the three eye conditions, eyes closure, eyes closed and eyes open, were estimated separately but with a common additive residual variance on the logit scale. The PD parameter estimates were highly variable across the 13 patients, with the estimation having trouble identifying Emax and EC50 (see Table 6 below).

[2] = C-7 plasma pharmacokinetics after single oral administration; format: in vivo, human
Procedure: The C-7 PK parameters were determined in plasma using non-compartmental methods using WinNonlin Pro (Version 5.2), as detailed in Table 3.
Biofluid concentrations were expressed in mass per volume units (ng/mL). All C-7 and AEDs concentrations below LLOQ were reported as zero in the concentration data listings. Concentrations below LLOQ were treated as zero in summary statistics of concentration data as well as for calculation of C-7 PK parameters. A geometric mean was not reported whenever at least one concentration was below the LLOQ (i.e. zero). Missing data were labeled as such and no imputation methods were used.
Terminal elimination rate constant (lambda_z) was calculated as the slope of the linear regression of the terminal phase of the logarithmic concentration-time profile for each individual dataset available. A minimum of three time points was used for determining lambda_z. Regression was performed without weighting, and a minimum value of 0.75 for Rsq_adjusted was necessary for acceptance.
The different areas under the concentration-time curve were calculated using the linear trapezoidal summation (both ascending and descending phase).
Descriptive statistics of pharmacokinetic parameters included mean, SD, and CV, minimum and maximum. The geometric mean was identified when presented. A range of values were presented for selected variables. Since Tmax is generally evaluated by a nonparametric method, median values and ranges were provided.
The patients received the study medication in the morning between 8:00 h and 9:00 h, at least 30 minutes after a light breakfast had been completed.

[3] = tested on: mouse; experiment: Oral bioavailability: in vivo orally active (audiogenic mouse test and/or MES test)
Procedure: The oral bioavailability was tested using the audiogenic mouse test (Audiogenic seizures, R. L. Collins; Chapter 14, pages: 347-372. In: Experimental Models of Epilepsy; By: Pupura, Penry, Tower, Woodbury, Walter, Raven Press, New York, 1972. Standard Book Number: 0-911216-26-X) and/or the MES test.

[4] = Cohort I, C-7 50 mg, individual patients
[5] = Cohort II, C-7 100 mg, individual patients
[6] = Cohort III, C-7 15 mg, individual patients
[7] = patients with PSE (after light breakfast) vs healthy volunteer study (fasted)

SMILES: CC(C)c1cc2[nH]c(=O)n(NS(C)(=O)=O)c(=O)c2cc1-c1ccnn1C [Compound C-7, N-[7-Isopropyl-6-(2-methyl-2H-pyrazol-3-yl)-2,4-dioxo-1,4-dihydro-2H-quinazolin-3-yl]-methanesulfonamide]
- EC50 ([1]; eyes closed): 3.75 µg/mL (≈ 9.93 µM)
- EC50 ([1]; eyes closures): 2.25 µg/mL (≈ 5.97 µM)
- EC50 ([1]; eyes open): 2.96 µg/mL (≈ 7.85 µM)
- EC50 (C-7 concentration at 50% of the maximum reduction in SPR) ([1]; eyes closed): 0.219 µg/mL and 0.005 µg/mL and 1.17 µg/mL and 0.31 µg/mL and 2.04 µg/mL and 0.229 µg/mL and 9.9 µg/mL and 2.08 µg/mL and 9.2 µg/mL
- Emax (maximum reduction in SPR on the logit scale) ([1]; eyes closed): 0.963 and 2.54 and 1.79 and 2.47 and 6.99 and 0.58 and 0.05 and 30.9 and 49.5 (3×) and 0.487
- mean (SD) Emax on the logit scale ([1]; eyes closed): 16.3 (21.7)
- EC50 (C-7 concentration at 50% of the maximum reduction in SPR) ([1]; eyes closure): 1.69 µg/mL and 9.9 µg/mL and 0.32 µg/mL and 0.788 µg/mL and 1.27 µg/mL and 0.005 µg/mL and 0.01 µg/mL and 0.814 µg/mL and 1.41 µg/mL and 3.08 µg/mL and 0.0833 µg/mL
- Emax (maximum reduction in SPR on the logit scale) ([1]; eyes closure): 2.38 and 41.5 and 0.571 and 49.5 (2×) and 3.25 and 2.39 and 0.05 (2×) and 9.23 and 1.31 and 7.67 and 0.495
- mean (SD) Emax on the logit scale ([1]; eyes closures): 12.9 (19.6)
- EC50 (C-7 concentration at 50% of the maximum reduction in SPR) ([1]; eyes open): 1.47 µg/mL and 9.9 µg/mL and 0.629 µg/mL and 0.131 µg/mL and 0.005 µg/mL and 0.137 µg/mL and 1.61 µg/mL and 1.88 µg/mL
- Emax (maximum reduction in SPR on the logit scale) ([1]; eyes open): 1.14 and 40.8 and 1.03 and 49.5 (4×) and 14.5 and 1.29 and 0.05 (2×) and 2.66
- mean (SD) Emax on the logit scale ([1]; eyes open): 21.6 (23.5)
- AUC0-24 h [2, 4]: 9838 ng·h/mL and 12564 ng·h/mL and 14162 ng·h/mL and 7043 ng·h/mL
- Cmax [2, 4]: 1910 ng/mL and 2140 ng/mL and 2800 ng/mL and 1410 ng/mL
- Tmax [2, 4]: 2.00 h and 2.92 h and 3.98 h and 3.87 h
- AUC0-24 h [2, 5]: 17924 ng·h/mL and 13877 ng·h/mL
- Cmax [2, 5]: 3470 ng/mL and 2950 ng/mL
- Tmax [2, 5]: 2.88 h and 2.00 h
- AUC0-24 h [2, 6]: 2906 ng·h/mL and 3878 ng·h/mL
- Cmax [2, 6]: 634 ng/mL and 701 ng/mL
- Tmax [2, 6]: 4.00 h and 1.97 h
- AUC(0-t) ([2]; human, plasma, oral, 15 mg, Cohort III, C-7 15 mg, individual patients, read-out: AUC0-24 h): 4270 ng·h/mL
- Cmax ([2]; human, plasma, oral, 15 mg, Cohort III, C-7 15 mg, individual patients, read-out: Cmax): 581 ng/mL
- Cmax ([2]; human, plasma, oral, 50 mg, Cohort I, C-7 50 mg, individual patients, read-out: Cmax): 1530 ng/mL
- Tmax ([2]; human, plasma, oral, 50 mg, Cohort I, C-7 50 mg, individual patients, read-out: Tmax): 3 h
- AUC(0-t) ([2]; human, plasma, oral, 100 mg, Cohort II, C-7 100 mg, individual patients, read-out: AUC0-24 h): 21300 ng·h/mL
- Cmax ([2]; human, plasma, oral, 100 mg, Cohort II, C-7 100 mg, individual patients, read-out: Cmax): 3700 ng/mL
- Tmax ([2]; human, plasma, oral, 100 mg, Cohort II, C-7 100 mg, individual patients, read-out: Tmax): 3 h
- AUC(0-t) ([2]; human, plasma, po, 15 mg, plasma, single oral 15 mg, Cohort III, n = 3, geometric mean [% CV geo mean], read-out: AUC0-6 hr): 2130 ng·h/mL
- AUC(0-t) ([2]; human, plasma, po, 15 mg, plasma, single oral 15 mg, Cohort III, n = 3, geometric mean [% CV geo mean], read-out: AUC0-24 hr): 3640 ng·h/mL
- AUC(0-t) ([2]; human, plasma, po, 15 mg, plasma, single oral 15 mg, Cohort III, n = 3, geometric mean [% CV geo mean], read-out: AUClast): 3660 ng·h/mL
- Cmax ([2]; human, plasma, po, 15 mg, plasma, single oral 15 mg, Cohort III, n = 3, geometric mean [% CV geo mean], read-out: Cmax): 637 ng/mL
- Tmax ([2]; human, plasma, po, 15 mg, plasma, single oral 15 mg, Cohort III, n = 3, median (min-max), read-out: Tmax): 2.98 h
- AUC(0-t) ([2]; human, plasma, po, 50 mg, plasma, single oral 50 mg, Cohort I, n = 6, geometric mean [% CV geo mean], read-out: AUC0-6 hr): 6790 ng·h/mL
- AUC(0-t) ([2]; human, plasma, po, 50 mg, plasma, single oral 50 mg, Cohort I, n = 6, geometric mean [% CV geo mean], read-out: AUC0-24 hr): 10600 ng·h/mL
- AUC(0-t) ([2]; human, plasma, po, 50 mg, plasma, single oral 50 mg, Cohort I, n = 6, geometric mean [% CV geo mean], read-out: AUClast): 10700 ng·h/mL
- Cmax ([2]; human, plasma, po, 50 mg, plasma, single oral 50 mg, Cohort I, n = 6, geometric mean [% CV geo mean], read-out: Cmax): 1990 ng/mL
- Tmax ([2]; human, plasma, po, 50 mg, plasma, single oral 50 mg, Cohort I, n = 6, median (min-max), read-out: Tmax): 2.96 h
- AUC(0-t) ([2]; human, plasma, po, 100 mg, plasma, single oral 100 mg, Cohort II, n = 4, geometric mean [% CV geo mean], read-out: AUC0-6 hr): 10200 ng·h/mL
- AUC(0-t) ([2]; human, plasma, po, 100 mg, plasma, single oral 100 mg, Cohort II, n = 4, geometric mean [% CV geo mean], read-out: AUC0-24 hr): 16900 ng·h/mL
- AUC(0-t) ([2]; human, plasma, po, 100 mg, plasma, single oral 100 mg, Cohort II, n = 4, geometric mean [% CV geo mean], read-out: AUClast): 17000 ng·h/mL
- Cmax ([2]; human, plasma, po, 100 mg, plasma, single oral 100 mg, Cohort II, n = 4, geometric mean [% CV geo mean], read-out: Cmax): 2980 ng/mL
- Tmax ([2]; human, plasma, po, 100 mg, plasma, single oral 100 mg, Cohort II, n = 4, median (min-max), read-out: Tmax): 2.94 h
- mean AUClast in patients higher than in healthy male subjects [2, 7]: 10-40%
- mean Cmax in patients higher than in healthy male subjects [2, 7]: 10-20%
- Tlag ([2]; plasma, single oral 15 mg, Cohort III, n = 3, median (min-max)): 0.00 (0.00-0.00) hr
- Tlag ([2]; plasma, single oral 50 mg, Cohort I, n = 6, median (min-max)): 0.00 (0.00-0.00) hr
- Tlag ([2]; plasma, single oral 100 mg, Cohort II, n = 4, median (min-max)): 0.00 (0.00-0.00) hr
- earliest time C-7 measurable in plasma ([2]; single 15, 50 or 100 mg dose): 0.25 h post-dose
- time of peak plasma concentration (median) ([2]; single 15, 50 or 100 mg dose): around 3 h post-dose
- time of peak plasma concentration, maximum in individual patients ([2]; single 15, 50 or 100 mg dose): 4 h
- time of peak plasma concentration, minimum in individual patients ([2]; single 15, 50 or 100 mg dose): approximately 2 h
- In vivo orally active [3]: Yes
